Experimental findings from PubChem BioAssay AID1963845 (Molecular Pharmacology Branch, DTP, NCI, 2024) are described below.

A word on the IC50: it is the midpoint of a concentration-inhibition curve. As usually defined, the viability, T/C is the result in the treated group divided by that in the control group, in per cent.

A value given as a limit tells only on which side of the number the result lay.
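Further: luminescence signal used as surrogate measure of viable cells; spheroids exposed to compounds for seven days before readout.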
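Wherever viability, T/C is given: 100% = DMSO vehicle control viability as luminescence relative to vehicle.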

The first experiment has as its system 429239-143-T-J1-PDC complex spheroid viability. The experiment can be described thus: Anticancer human tumor 429239-143-T-J1-PDC patient-derived small cell lung carcinoma cell line growth inhibition [POLQ]. The note with it: curve of first compound; second compound 0.0316 µM. Summed up:
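Three-cell-type spheroids modelling solid tumor plus stroma served as the readout system; POL inhibitors were tested individually and in combination, concentration ranges set by clinical Cmax where known.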
For `C=CC(=O)N1CCN(c2nc(=O)n(-c3c(C)ccnc3C(C)C)c3nc(-c4c(O)cccc4F)c(F)cc23)C(C)C1` (stereo unspecified) + Nc1ccc(C#CCN(C(=O)Cc2ncc(C(F)(F)F)cc2C(F)(F)F)c2ccc(F)cc2)nn1, the IC50 was above 10 µM.
The same measure, in the same setting: for `CC(C)n1c(=O)n(C)c2cnc3cc(F)c(-c4ccc(OCCCN5CCCCC5)nc4)cc3c21` + Nc1ccc(C#CCN(C(=O)Cc2ncc(C(F)(F)F)cc2C(F)(F)F)c2ccc(F)cc2)nn1 the value was above 10 µM; for `COc1ccc([C@@H](O)c2cc(-c3ncnc4cc(N5CCOCC5)ccc34)c(F)cc2Cl)nn1` + Nc1ccc(C#CCN(C(=O)Cc2ncc(C(F)(F)F)cc2C(F)(F)F)c2ccc(F)cc2)nn1, 9.31 µM.

Still in this experiment, the particulars now being: curve of first compound; second compound 0.1 µM.
`C=CC(=O)N1CCN(c2nc(=O)n(-c3c(C)ccnc3C(C)C)c3nc(-c4c(O)cccc4F)c(F)cc23)C(C)C1` (stereo unspecified) + Nc1ccc(C#CCN(C(=O)Cc2ncc(C(F)(F)F)cc2C(F)(F)F)c2ccc(F)cc2)nn1: the IC50 was above 10 µM.
On the same count and under the same terms, then `CC(C)n1c(=O)n(C)c2cnc3cc(F)c(-c4ccc(OCCCN5CCCCC5)nc4)cc3c21` + Nc1ccc(C#CCN(C(=O)Cc2ncc(C(F)(F)F)cc2C(F)(F)F)c2ccc(F)cc2)nn1, with above 10 µM; and `COc1ccc([C@@H](O)c2cc(-c3ncnc4cc(N5CCOCC5)ccc34)c(F)cc2Cl)nn1` + Nc1ccc(C#CCN(C(=O)Cc2ncc(C(F)(F)F)cc2C(F)(F)F)c2ccc(F)cc2)nn1, with 9.66 µM.

The experiment is the same for the next values; noted with them: curve of first compound; second compound 0.316 µM.
In the case of `C=CC(=O)N1CCN(c2nc(=O)n(-c3c(C)ccnc3C(C)C)c3nc(-c4c(O)cccc4F)c(F)cc23)C(C)C1` (stereo unspecified) + Nc1ccc(C#CCN(C(=O)Cc2ncc(C(F)(F)F)cc2C(F)(F)F)c2ccc(F)cc2)nn1, the IC50 was above 10 µM.
For the compound `CC(C)n1c(=O)n(C)c2cnc3cc(F)c(-c4ccc(OCCCN5CCCCC5)nc4)cc3c21` + Nc1ccc(C#CCN(C(=O)Cc2ncc(C(F)(F)F)cc2C(F)(F)F)c2ccc(F)cc2)nn1, the IC50 is above 10 µM.
Turning to `COc1ccc([C@@H](O)c2cc(-c3ncnc4cc(N5CCOCC5)ccc34)c(F)cc2Cl)nn1` + Nc1ccc(C#CCN(C(=O)Cc2ncc(C(F)(F)F)cc2C(F)(F)F)c2ccc(F)cc2)nn1, the IC50 amounted to 8.87 µM.

Staying with this experiment, now noted: curve of first compound; second compound 1 µM.
In the case of `C=CC(=O)N1CCN(c2nc(=O)n(-c3c(C)ccnc3C(C)C)c3nc(-c4c(O)cccc4F)c(F)cc23)C(C)C1` (stereo unspecified) + Nc1ccc(C#CCN(C(=O)Cc2ncc(C(F)(F)F)cc2C(F)(F)F)c2ccc(F)cc2)nn1, the half-inhibitory concentration (IC50) is above 10 µM.
For `CC(C)n1c(=O)n(C)c2cnc3cc(F)c(-c4ccc(OCCCN5CCCCC5)nc4)cc3c21` + Nc1ccc(C#CCN(C(=O)Cc2ncc(C(F)(F)F)cc2C(F)(F)F)c2ccc(F)cc2)nn1, the IC50 was above 10 µM.
Consider `COc1ccc([C@@H](O)c2cc(-c3ncnc4cc(N5CCOCC5)ccc34)c(F)cc2Cl)nn1` + Nc1ccc(C#CCN(C(=O)Cc2ncc(C(F)(F)F)cc2C(F)(F)F)c2ccc(F)cc2)nn1, for which the half-maximal inhibitory concentration (IC50) is above 10 µM.

The same experiment, now with this note: curve of first compound; second compound 3.16 µM.
Regarding `C=CC(=O)N1CCN(c2nc(=O)n(-c3c(C)ccnc3C(C)C)c3nc(-c4c(O)cccc4F)c(F)cc23)C(C)C1` (stereo unspecified) + Nc1ccc(C#CCN(C(=O)Cc2ncc(C(F)(F)F)cc2C(F)(F)F)c2ccc(F)cc2)nn1, the IC50 was above 10 µM.
As to `CC(C)n1c(=O)n(C)c2cnc3cc(F)c(-c4ccc(OCCCN5CCCCC5)nc4)cc3c21` + Nc1ccc(C#CCN(C(=O)Cc2ncc(C(F)(F)F)cc2C(F)(F)F)c2ccc(F)cc2)nn1, the IC50 is above 10 µM.
`COc1ccc([C@@H](O)c2cc(-c3ncnc4cc(N5CCOCC5)ccc34)c(F)cc2Cl)nn1` + Nc1ccc(C#CCN(C(=O)Cc2ncc(C(F)(F)F)cc2C(F)(F)F)c2ccc(F)cc2)nn1: the IC50 was determined as 8.13 µM.

The same experiment, now with this note: curve of first compound; second compound 10 µM.
Take `C=CC(=O)N1CCN(c2nc(=O)n(-c3c(C)ccnc3C(C)C)c3nc(-c4c(O)cccc4F)c(F)cc23)C(C)C1` (stereo unspecified) + Nc1ccc(C#CCN(C(=O)Cc2ncc(C(F)(F)F)cc2C(F)(F)F)c2ccc(F)cc2)nn1: the IC50 is above 10 µM.
In the case of `CC(C)n1c(=O)n(C)c2cnc3cc(F)c(-c4ccc(OCCCN5CCCCC5)nc4)cc3c21` + Nc1ccc(C#CCN(C(=O)Cc2ncc(C(F)(F)F)cc2C(F)(F)F)c2ccc(F)cc2)nn1, the IC50 is above 10 µM.
Consider `COc1ccc([C@@H](O)c2cc(-c3ncnc4cc(N5CCOCC5)ccc34)c(F)cc2Cl)nn1` + Nc1ccc(C#CCN(C(=O)Cc2ncc(C(F)(F)F)cc2C(F)(F)F)c2ccc(F)cc2)nn1, for which the concentration for half-maximal inhibition (IC50) is 7.29 µM.

Still in this experiment, the particulars now being: second compound 0.0316 µM; first compound 0.0316 µM; stronger effect = lower value.
Consider `C=CC(=O)N1CCN(c2nc(=O)n(-c3c(C)ccnc3C(C)C)c3nc(-c4c(O)cccc4F)c(F)cc23)C(C)C1` (stereo unspecified) + Nc1ccc(C#CCN(C(=O)Cc2ncc(C(F)(F)F)cc2C(F)(F)F)c2ccc(F)cc2)nn1, for which the viability, T/C is 101%.
As to `CC(C)n1c(=O)n(C)c2cnc3cc(F)c(-c4ccc(OCCCN5CCCCC5)nc4)cc3c21` + Nc1ccc(C#CCN(C(=O)Cc2ncc(C(F)(F)F)cc2C(F)(F)F)c2ccc(F)cc2)nn1, the viability, T/C is 98.5%.
As for `COc1ccc([C@@H](O)c2cc(-c3ncnc4cc(N5CCOCC5)ccc34)c(F)cc2Cl)nn1` + Nc1ccc(C#CCN(C(=O)Cc2ncc(C(F)(F)F)cc2C(F)(F)F)c2ccc(F)cc2)nn1, the viability, T/C was 92%.

Still in this experiment, the particulars now being: second compound 0.0316 µM; first compound 0.1 µM; stronger effect = lower value.
For `C=CC(=O)N1CCN(c2nc(=O)n(-c3c(C)ccnc3C(C)C)c3nc(-c4c(O)cccc4F)c(F)cc23)C(C)C1` (stereo unspecified) + Nc1ccc(C#CCN(C(=O)Cc2ncc(C(F)(F)F)cc2C(F)(F)F)c2ccc(F)cc2)nn1, the viability, T/C was 97.2%.
The same measure, in the same setting: then `CC(C)n1c(=O)n(C)c2cnc3cc(F)c(-c4ccc(OCCCN5CCCCC5)nc4)cc3c21` + Nc1ccc(C#CCN(C(=O)Cc2ncc(C(F)(F)F)cc2C(F)(F)F)c2ccc(F)cc2)nn1, with 107%.
Turning to `COc1ccc([C@@H](O)c2cc(-c3ncnc4cc(N5CCOCC5)ccc34)c(F)cc2Cl)nn1` + Nc1ccc(C#CCN(C(=O)Cc2ncc(C(F)(F)F)cc2C(F)(F)F)c2ccc(F)cc2)nn1, the viability, T/C is 103%.

Still in this experiment, the particulars now being: second compound 0.0316 µM; first compound 0.316 µM; stronger effect = lower value.
As to `C=CC(=O)N1CCN(c2nc(=O)n(-c3c(C)ccnc3C(C)C)c3nc(-c4c(O)cccc4F)c(F)cc23)C(C)C1` (stereo unspecified) + Nc1ccc(C#CCN(C(=O)Cc2ncc(C(F)(F)F)cc2C(F)(F)F)c2ccc(F)cc2)nn1, the viability, T/C was 97.2%.
Still for that read-out and setting: for `CC(C)n1c(=O)n(C)c2cnc3cc(F)c(-c4ccc(OCCCN5CCCCC5)nc4)cc3c21` + Nc1ccc(C#CCN(C(=O)Cc2ncc(C(F)(F)F)cc2C(F)(F)F)c2ccc(F)cc2)nn1 the value was 92.2%; for `COc1ccc([C@@H](O)c2cc(-c3ncnc4cc(N5CCOCC5)ccc34)c(F)cc2Cl)nn1` + Nc1ccc(C#CCN(C(=O)Cc2ncc(C(F)(F)F)cc2C(F)(F)F)c2ccc(F)cc2)nn1, 102%.

Still in this experiment, the particulars now being: second compound 0.0316 µM; first compound 1 µM; stronger effect = lower value.
Regarding `C=CC(=O)N1CCN(c2nc(=O)n(-c3c(C)ccnc3C(C)C)c3nc(-c4c(O)cccc4F)c(F)cc23)C(C)C1` (stereo unspecified) + Nc1ccc(C#CCN(C(=O)Cc2ncc(C(F)(F)F)cc2C(F)(F)F)c2ccc(F)cc2)nn1, the viability, T/C is 114%.
As to `CC(C)n1c(=O)n(C)c2cnc3cc(F)c(-c4ccc(OCCCN5CCCCC5)nc4)cc3c21` + Nc1ccc(C#CCN(C(=O)Cc2ncc(C(F)(F)F)cc2C(F)(F)F)c2ccc(F)cc2)nn1, the viability, T/C is 109%.
On the same count and under the same terms, then `COc1ccc([C@@H](O)c2cc(-c3ncnc4cc(N5CCOCC5)ccc34)c(F)cc2Cl)nn1` + Nc1ccc(C#CCN(C(=O)Cc2ncc(C(F)(F)F)cc2C(F)(F)F)c2ccc(F)cc2)nn1, with 98.8%.

The experiment is the same for the next values; noted with them: second compound 0.0316 µM; first compound 3.16 µM; stronger effect = lower value.
As for `C=CC(=O)N1CCN(c2nc(=O)n(-c3c(C)ccnc3C(C)C)c3nc(-c4c(O)cccc4F)c(F)cc23)C(C)C1` (stereo unspecified) + Nc1ccc(C#CCN(C(=O)Cc2ncc(C(F)(F)F)cc2C(F)(F)F)c2ccc(F)cc2)nn1, the viability, T/C was 108%.
